In patent US11976046B1, “4-(4,5-bis(4-bromophenyl)-2-(4-methoxyphenyl)-1H-imidazol-1-yl)benzoic acid as an antimicrobial compound” (KING FAISAL UNIVERSITY, priority 2023, dated 2024):

Test system: different microbes
Experiment: agar plate disc-diffusion antimicrobial testing
Format: cell-based
Conditions: against different microbes; screened against gram-positive Bacillus cereus and Staphylococcus aureus, gram-negative Pseudomonas aeruginosa and Escherichia coli, fungi Aspergillus flavus and Chrysosporium keratinophilum
Description: The agar plate disc-diffusion method was applied. Sterilized filter papers (6 mm in diameter) were wetted with 10 μL of a solution of 4-(4,5-bis(4-bromophenyl)-2-(4-methoxyphenyl)-1H-imidazol-1-yl)benzoic acid (V) to be tested, containing 10 mg/mL in DMSO, and the discs were allowed to air dry. The discs were then placed onto the surface of agar plates (nutrient agar for bacteria and Sabouraud's dextrose agar for fungi) seeded with the test organism. Each plate contained 15 mL of the agar medium, previously seeded with 0.2 mL of the broth culture of each organism pregrown for 18 hours. The plates were incubated at 37° C. for 48 hours, and 72 hours for fungi. The inhibition zones was measured in mm. Discs impregnated with DMSO were used as a control, and its inhibition zone was subtracted from the tested compound actual inhibition zone.

With COc1ccc(-c2nc(-c3ccc(Br)cc3)c(-c3ccc(Br)cc3)n2-c2ccc(C(=O)O)cc2)cc1 [V, 4-(4,5-bis(4-bromophenyl)-2-(4-methoxyphenyl)-1H-imidazol-1-yl)benzoic acid] the antimicrobial activities was “excellent antimicrobial activities”.
